From US11912723B2, “KRAS modulators and uses thereof” (Quanta Therapeutics, Inc., priority 2022, dated 2024)

Tests used:
[1] = tested on: AGS (KRAS G12D) cells, phospho-ERK; test: pERK In Cell Western (ICW) assay (Method B); format: cell-based; details: Homo sapiens, 3 hours
Method in brief: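 AGS cells seeded at 5,000/well, grown overnight, then treated 3 h at 37 °C with ½-log 10-point dilutions (top 10 μM). Fixed cells stained for phospho-ERK, normalized to DRAQ5 DNA signal and to DMSO control; IC50 from 4-parameter variable-slope fit.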

[2] = target: T1, GST-tagged KRAS G12D (2-169) (Homo sapiens, UniProt P01116, G12D); test: Nucleotide exchange assay (NEA), HTRF of SOS-mediated GTP-DY-647P1 binding; format: biochemical; details: 5 nM GST-KRAS G12D, 20 nM SOScat, 150 nM GTP; compound 1 h at RT
T1 construct: GST-tagged KRAS^G12D (2-169, Reaction Biology, MSC-11-539); purchased Reaction Biology MSC-11-539 (KRAS G12D); MSC-11-502 (SOS1cat)
Method in brief: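 SOS1cat (564-1049)-driven loading of GTP-DY-647P1 onto KRAS G12D, read by HTRF with anti-GST Tb cryptate donor; compound preincubated with KRAS 1 h at RT. Final 5 nM KRAS, 20 nM SOScat, 150 nM GTP, pH 7.3 HEPES buffer; read up to 90 min at RT. Blanked to no-SOS1; 4-parameter fit of % inhibition.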

T1 sequence (P01116 2-169 isoform P01116-2 G12D): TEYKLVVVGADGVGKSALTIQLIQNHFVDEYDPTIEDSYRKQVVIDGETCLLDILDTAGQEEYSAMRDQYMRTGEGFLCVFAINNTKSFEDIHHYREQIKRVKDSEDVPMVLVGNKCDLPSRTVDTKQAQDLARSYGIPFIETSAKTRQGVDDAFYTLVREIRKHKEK

SMILES: CN(C)C(=O)c1cc2n(n1)CCCN(c1nc(OC[C@@]34CCCN3C[C@H](F)C4)nc3c1COC1(CCCc4c(Cl)cc(O)cc41)C3)C2 (mixture of isomers) [Compound 43, 5-[5′-chloro-7′-hydroxy-2-[[rac-(2R,8S)-2-fluoro-1,2,3,5,6,7-hexahydropyrrolizin-8-yl]methoxy]spiro[5,8-dihydropyrano[4,3-d]pyrimidine-7,1′-tetralin]-4-yl]-N,N-dimethyl-4,6,7,8-tetrahydropyrazolo[1,5-a][1,4]diazepine-2-carboxamide]
- IC50 [1]: 1 to 10 µM
- IC50 [2]: 10 to 100 nM

SMILES: F[C@H]1CN2CCC[C@@]2(COc2nc3c(c(N4C[C@H]5CC[C@@H](C4)N5)n2)COC2(CCc4c(Cl)cccc42)C3)C1 (stereo partly drawn) [Compound 2, 4′-((1R,5S)-3,8-diazabicyclo[3.2.1]octan-3-yl)-4-chloro-2′-(((2R,7aS)-2-fluorotetrahydro-1H-pyrrolizin-7a(5H)-yl)methoxy)-2,3,5′,8′-tetrahydrospiro[indene-1,7′-pyrano[4,3-d]pyrimidine]]
- IC50 [1]: 1 to 10 µM
- IC50 [2]: 10 to 100 nM

SMILES: F[C@H]1CN2CCC[C@@]2(COc2nc3c(c(N4CCCCCC4)n2)COC2(CCCc4c(Br)cccc42)C3)C1 (stereo partly drawn) [Compound 5, 4-(azepan-1-yl)-5′-bromo-2-[[(2R,8S)-2-fluoro-1,2,3,5,6,7-hexahydropyrrolizin-8-yl]methoxy]spiro[5,8-dihydropyrano[4,3-d]pyrimidine-7,1′-tetralin]]
- IC50 [1]: > 10 µM
- IC50 [2]: 1000 to 20000 nM

SMILES: Oc1ccc2c(c1)C1(CCC2)Cc2nc(OC[C@@]34CCCN3C[C@H](F)C4)nc(N3CCCCCC3)c2CO1 (single isomer, unassigned) [Compound 7]
- IC50 [1]: > 10 µM
- IC50 [2]: 1000 to 20000 nM
